Test results from patent US20210369738A1, “PRODUCTION METHOD OF TELOMERASE ACTIVATORS AND TELOMERASE ACTIVATORS OBTAINED BY THIS METHOD” (IZMIR YUKSEK TEKNOLOJI ENSTITUSU, priority 2017, published 2021).

Legend:
telomerase enzyme = target: T1, telomerase enzyme (Homo sapiens, UniProt O14746); test: Telomerase activation, TELOTAGGG PCR ELISAPLUS kit, HEKn cells; format: cell-based; details: 24-hour incubation
T1 construct: host or cells: HEKn (human primary epidermal keratinocytes)
Method: Telomerase activation tests were performed on selected molecules as follows; For culturing HEKn (Human Primer Epidermal Keratinocyte, ATCC; PCS-200-010) cells, the cell medium containing the components given in Table 2 is prepared and the cells are grown in the Dermal Cell Basal medium (PCS-200-030) supplemented with components in 5% CO2 environment at 37° C.
Telomerase activation was performed using the TELOTAGGG PCR ELISAPLUS kit (Roche; 12013789001, 16× version), a highly sensitive and quantitative method, according to the manufacturer's protocol, as follows:
After application of the selected molecules to HEKn cell lines at the defined dose interval and completion of 24-hour incubation, cells are collected and counted by hemocytometer. 2×10^5 cells are transferred to clean microcentrifuge tubes and then centrifuged at 3000×g for 5 min (at 4° C.). The supernatant is removed and the cells in the pellet are suspended with 200 μl of lysis buffer (Solution 1) and incubated on ice for 30 min. After incubation the lysates are centrifuged at 16,000×g for 20 min (at 4° C.) and the cooled supernatant is transferred to clean microcentrifuge tubes.
PCR is designed for sample group and control group. 25 μl reaction mixture (Solution 2) and 5 μl internal standard solution (Solution 3) are transferred to the PCR tubes for both the positive and negative sample as well as for the sample to be investigated for activation or the prepared master mixture is taken to a 30 μl PCR tube to contain this content. For the samples to be tested, 2 μl of each PCR sample is added from the cell lysate. For the control group, 1 μl of the low or high concentration TS8 control sample (Solution 4 or 5) is transferred to a separate PCR tube. From the lysis buffer (Solution 1), 1 μl is transferred to a separate PCR tube.
For each sample, 10 μl of the denaturing agent (Solution 7) is added to the nuclease-free 96-well plate. 2.5 μl of the amplified product is transferred to the plate and incubated for 10 min at +15 and +25° C. 100 μL Hybridization Buffer T (Solution 8) is added to a portion of the samples, 100 μL Hybridization Buffer IS (Solution 9) is added to the other portion. After homogenization, 100 μl of the reaction mixture is transferred to the MP module coated with streptavidin and the MP module is carefully closed with the special coating paper. After completion of the transfer process, the MP module is shaken at 300 rpm for 2 hours at 37° C. After incubation, the hybridization solutions are removed. Each well is washed 3 times with 250 μl of 1× wash buffer (Solution 10). The prepared anti-DIG-HRP working solution (Solution 11) is added to each of the wells. The MP module is sealed with special coating paper and incubated for 30 min at 15-25° C. with shaking at 300 rpm and the solution is carefully removed from the wells. Each well is washed 5 times in 1× wash buffer (Solution 10). From room temperature TMB substrate solution (Solution 13), 100 μl is added to each well. The MP module is covered with special coating paper and incubated at 15-25° C. for 10-20 minutes at 300 rpm with shaking. The color change is terminated by adding the post-incubation termination agent (Solution 14). The samples are measured at […] in a microplate reader for 30 min. Compounds showing telomerase activation in the 1.5-fold and higher levels according to DMSO used as a negative control were considered active.

[1] = as a telomerase activator; cited from earlier work

T1 sequence (O14746 whole entry): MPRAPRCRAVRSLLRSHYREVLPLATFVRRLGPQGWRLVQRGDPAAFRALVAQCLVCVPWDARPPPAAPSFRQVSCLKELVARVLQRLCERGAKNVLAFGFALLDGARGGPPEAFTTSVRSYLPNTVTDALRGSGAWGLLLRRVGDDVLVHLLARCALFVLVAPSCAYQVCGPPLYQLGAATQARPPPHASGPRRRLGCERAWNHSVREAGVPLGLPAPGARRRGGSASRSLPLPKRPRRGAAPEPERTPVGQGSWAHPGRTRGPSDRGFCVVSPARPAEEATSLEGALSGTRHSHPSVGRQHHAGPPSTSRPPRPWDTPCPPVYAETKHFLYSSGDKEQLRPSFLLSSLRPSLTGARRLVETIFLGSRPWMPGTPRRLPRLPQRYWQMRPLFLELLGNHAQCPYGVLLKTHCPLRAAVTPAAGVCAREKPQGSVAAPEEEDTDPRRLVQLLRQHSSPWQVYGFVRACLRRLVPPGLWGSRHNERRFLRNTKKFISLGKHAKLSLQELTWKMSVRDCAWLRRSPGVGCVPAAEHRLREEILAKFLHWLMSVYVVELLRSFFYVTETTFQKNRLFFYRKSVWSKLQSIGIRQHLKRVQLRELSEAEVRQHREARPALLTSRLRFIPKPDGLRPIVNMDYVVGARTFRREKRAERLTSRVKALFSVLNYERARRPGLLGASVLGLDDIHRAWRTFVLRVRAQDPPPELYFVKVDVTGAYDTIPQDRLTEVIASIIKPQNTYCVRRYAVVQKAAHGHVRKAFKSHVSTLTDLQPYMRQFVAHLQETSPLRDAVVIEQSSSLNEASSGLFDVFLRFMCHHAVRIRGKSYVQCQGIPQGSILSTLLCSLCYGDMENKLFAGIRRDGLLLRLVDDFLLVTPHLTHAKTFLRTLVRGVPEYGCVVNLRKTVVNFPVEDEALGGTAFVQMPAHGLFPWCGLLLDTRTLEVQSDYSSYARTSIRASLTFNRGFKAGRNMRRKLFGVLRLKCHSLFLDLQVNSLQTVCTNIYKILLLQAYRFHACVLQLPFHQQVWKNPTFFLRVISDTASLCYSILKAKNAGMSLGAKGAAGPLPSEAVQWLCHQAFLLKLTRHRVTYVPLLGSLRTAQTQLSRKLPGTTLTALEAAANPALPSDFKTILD

CC(C)(O)[C@@H]1CC[C@](C)([C@H]2[C@@H](O)C[C@@]3(C)C4C[C@H](O)[C@@H](C(C)(C)O)[C@@]5(CCC(=O)O)C[C@@]45CC[C@]23C)O1 (some centres unmarked) [Molecule 11]
Fold increase over negative control (DMSO) (telomerase enzyme; 0.5 nM): 2.08 fold | Fold increase over negative control (DMSO) (telomerase enzyme; 2 nM): 1.9 fold | Fold increase over negative control (DMSO) (telomerase enzyme; 10 nM): 1.73 fold | Fold increase over negative control (DMSO) (telomerase enzyme; 30 nM): 3.17 fold

CC1(C)OC(=O)CC[C@]23C[C@]24CC[C@]2(C)[C@@H]([C@@]5(C)CC[C@@H](C(C)(C)O)O5)[C@@H](O)C[C@@]2(C)C4C[C@H](O)C13 (some centres unmarked) [Molecule 10]
Fold increase over negative control (DMSO) (telomerase enzyme; 0.5 nM): 8.43 fold | Fold increase over negative control (DMSO) (telomerase enzyme; 2 nM): 9.35 fold | Fold increase over negative control (DMSO) (telomerase enzyme; 10 nM): 9.95 fold | Fold increase over negative control (DMSO) (telomerase enzyme; 30 nM): 4.6 fold

CC(C)(O)[C@@H]1CC[C@](C)([C@H]2[C@@H](O)C[C@@]3(C)C4C[C@H](O)C5C(C)(C)[C@@H](O)CC[C@@]56C[C@@]46C[C@@H](O)[C@]23C)O1 (some centres unmarked) [Molecule 4]
Fold increase over negative control (DMSO) (telomerase enzyme; 2 nM): 2.13 fold | Fold increase over negative control (DMSO) (telomerase enzyme; 10 nM): 2.22 fold | Fold increase over negative control (DMSO) (telomerase enzyme; 50 nM): 2.4 fold | Fold increase over negative control (DMSO) (telomerase enzyme; 300 nM): 2.13 fold

CC(C)(O)[C@@H]1CC[C@](C)([C@H]2[C@@H](O)C[C@@]3(C)C4C[C@H](O)C5C(C)(C)[C@@H](O)CC[C@]5(C)C4=C[C@@H](O)[C@]23C)O1 (some centres unmarked) [Molecule 14]
Fold increase over negative control (DMSO) (telomerase enzyme; 2 nM): 2.53 fold | Fold increase over negative control (DMSO) (telomerase enzyme; 10 nM): 1.62 fold | Fold increase over negative control (DMSO) (telomerase enzyme; 50 nM): 1.6 fold | Fold increase over negative control (DMSO) (telomerase enzyme; 300 nM): 0.53 fold

CC1(C)C(=O)CC[C@]23C[C@]24CC[C@]2(C)[C@@H]([C@@]5(C)CC[C@@H](C(C)(C)O)O5)[C@@H](O)C[C@@]2(C)C4C[C@H](O)C13 (some centres unmarked) [Molecule 12]
Fold increase over negative control (DMSO) (telomerase enzyme; 0.5 nM): 4.65 fold | Fold increase over negative control (DMSO) (telomerase enzyme; 2 nM): 2.14 fold | Fold increase over negative control (DMSO) (telomerase enzyme; 10 nM): 1.78 fold | Fold increase over negative control (DMSO) (telomerase enzyme; 30 nM): 0.84 fold

C=C(C)[C@@H]1[C@@H](O)CC2C(=CC[C@]3(C)[C@@H]([C@@]4(C)CC[C@@H](C(C)(C)O)O4)[C@@H](O)C[C@@]23C)[C@@]1(C)CCC(=O)O (some centres unmarked) [Molecule 20]
Fold increase over negative control (DMSO) (telomerase enzyme; 0.5 nM): 9.01 fold | Fold increase over negative control (DMSO) (telomerase enzyme; 2 nM): 5.23 fold | Fold increase over negative control (DMSO) (telomerase enzyme; 10 nM): 6.04 fold | Fold increase over negative control (DMSO) (telomerase enzyme; 30 nM): 7.86 fold

CC1(C)C(=O)C[C@H](O)[C@]23C[C@]24CC[C@]2(C)[C@@H]([C@@]5(C)CC[C@@H](C(C)(C)O)O5)[C@@H](O)C[C@@]2(C)C4C[C@H](O)C13 (some centres unmarked) [Molecule 1]
Fold increase over negative control (DMSO) (telomerase enzyme; 30 nM): 1.73 fold | Fold increase over negative control (DMSO) (telomerase enzyme; 100 nM): 0.72 fold | Fold increase over negative control (DMSO) (telomerase enzyme; 300 nM): 0.74 fold | Fold increase over negative control (DMSO) (telomerase enzyme; 1000 nM): 1.2 fold

CC(C)(O)[C@@H]1CC[C@](C)([C@H]2[C@@H](O)C[C@@]3(C)C4C[C@H](O)C5C(C)(C)[C@@H](O)CC[C@]5(C)C4=CC(=O)[C@]23C)O1 (some centres unmarked) [Molecule 17]
Fold increase over negative control (DMSO) (telomerase enzyme; 0.5 nM): 0.42 fold | Fold increase over negative control (DMSO) (telomerase enzyme; 2 nM): 1.33 fold | Fold increase over negative control (DMSO) (telomerase enzyme; 10 nM): 1 fold | Fold increase over negative control (DMSO) (telomerase enzyme; 50 nM): 1.57 fold

CC1(C)C(=O)CC[C@]2(C)C3=CC[C@]4(C)[C@@H]([C@@]5(C)CC[C@@H](C(C)(C)O)O5)[C@@H](O)C[C@@]4(C)C3C[C@H](O)C12 (some centres unmarked) [Molecule 21]
Fold increase over negative control (DMSO) (telomerase enzyme; 0.5 nM): 9.25 fold | Fold increase over negative control (DMSO) (telomerase enzyme; 2 nM): 1.43 fold | Fold increase over negative control (DMSO) (telomerase enzyme; 10 nM): 1.04 fold | Fold increase over negative control (DMSO) (telomerase enzyme; 30 nM): 1.18 fold

CC(C)(O)[C@@H]1CC[C@](C)([C@H]2[C@@H](O)C[C@@]3(C)C4C[C@H](O)C5C(C)(C)[C@@H](O)CC[C@@]56C[C@@]46C[C@H](O)[C@]23C)O1 (some centres unmarked) [Molecule 6]
Fold increase over negative control (DMSO) (telomerase enzyme; 0.5 nM): 9.23 fold | Fold increase over negative control (DMSO) (telomerase enzyme; 2 nM): 10 fold | Fold increase over negative control (DMSO) (telomerase enzyme; 10 nM): 6.38 fold | Fold increase over negative control (DMSO) (telomerase enzyme; 30 nM): 2.37 fold

CC(C)(O)[C@@H]1CC[C@](C)([C@H]2[C@@H](O)C[C@@]3(C)C4C[C@H](O)C5C(C)(C)[C@@H](O)CC[C@]5(C)C4=C[C@H](O)[C@]23C)O1 (some centres unmarked) [Molecule 16]
Fold increase over negative control (DMSO) (telomerase enzyme; 0.1 nM): 0.98 fold | Fold increase over negative control (DMSO) (telomerase enzyme; 0.5 nM): 2.31 fold | Fold increase over negative control (DMSO) (telomerase enzyme; 2 nM): 2.78 fold | Fold increase over negative control (DMSO) (telomerase enzyme; 10 nM): 0.95 fold

CC1(C)C(=O)CC[C@]23C[C@]24CC[C@]2(C)[C@@H]([C@@]5(C)CC[C@@H](C(C)(C)O)O5)[C@@H](O)C[C@@]2(CO)C4C[C@H](O)C13 (some centres unmarked) [Molecule 3]
Fold increase over negative control (DMSO) (telomerase enzyme; 30 nM): 2.36 fold | Fold increase over negative control (DMSO) (telomerase enzyme; 100 nM): 0.78 fold | Fold increase over negative control (DMSO) (telomerase enzyme; 300 nM): 1.24 fold | Fold increase over negative control (DMSO) (telomerase enzyme; 1000 nM): 1.07 fold

CC(C)(O)[C@@H]1CC[C@](C)([C@H]2[C@@H](O)C[C@@]3(C)C4C[C@H](O)[C@@H](C(C)(C)O)[C@](C)(CCC(=O)O)C4=CC[C@]23C)O1 (some centres unmarked) [Molecule 19]
Fold increase over negative control (DMSO) (telomerase enzyme; 0.5 nM): 2.65 fold | Fold increase over negative control (DMSO) (telomerase enzyme; 2 nM): 1.24 fold | Fold increase over negative control (DMSO) (telomerase enzyme; 10 nM): 11.32 fold | Fold increase over negative control (DMSO) (telomerase enzyme; 30 nM): 1.93 fold

CC(C)(O)[C@@H]1CC[C@](C)([C@H]2[C@@H](O)C[C@@]3(C)C4C[C@H](O)C5C(C)(C)[C@@H](O)CC[C@@]56C[C@@]46CC[C@]23C)O1 (some centres unmarked) [Cycloastragenol]
bioavailability [1]: 5%
